In patent US8853172B2, “Anti-plant-virus agent” (National University Corporation Hokkaido University, priority 2009, dated 2014):

Tests used:
Type in all cases: in vivo
Turnip mosaic virus [1] = experiment: Experiment III: therapeutic test, spraying after inoculation of Arabidopsis thaliana with Turnip mosaic virus (inoculation solution C); conditions: Arabidopsis thaliana (Columbia), ten columns inoculated, 20 mM sprayed on days 1, 4, 7 and 10 after inoculation, observed on the 16th day
Method: A nonionic surfactant (polyoxyethylene sorbitan monolaurate) and a spreading agent (Approach BI: manufactured by Kao Corporation) were dissolved in N,N-dimethylformamide. This solution was added to water to obtain an aqueous solution comprising 0.05% of a nonionic surfactant, 0.1% of a spreading agent, and 1% of N,N-dimethylformamide.
(§1) Two expanded leaves per one column of Arabidopsis thaliana (Columbia) were inoculated with the virus via the aforementioned virus inoculation solution C by the carborundum method.
On the 1st day, the 4th day, the 7th day and the 10th day after the date of the virus inoculation, the aforementioned aqueous solution was sprayed thereon.
On the 16th day after the date of the virus inoculation, the presence or absence of disease symptoms such as yellow mosaic of new leaves, leaf curling, plant stunting was observed.
(§2) Ascorbic acid 6-palmitate, a nonionic surfactant (polyoxyethylene sorbitan monolaurate) and a spreading agent (Approach BI: manufactured by Kao Corporation) were dissolved in N,N-dimethylformamide. This solution was added to water to obtain an aqueous solution of the anti-plant virus agent comprising 20 mM ascorbic acid 6-palmitate, 0.05% of a nonionic surfactant, 0.1% of a spreading agent, and 1% of N,N-dimethylformamide.
Except that the aqueous solution of the anti-plant virus agent was sprayed onto Arabidopsis thaliana instead of the aforementioned aqueous solution, in the same manner as Comparative Example 6, Turnip mosaic virus was inoculated onto Arabidopsis thaliana, and then the onset of the symptoms was examined.

Turnip mosaic virus [2] = experiment: Experiment II: preventive test, spraying before inoculation of Arabidopsis thaliana with Turnip mosaic virus (inoculation solution C); conditions: for columns that showed symptoms / columns that were healthy: Arabidopsis thaliana (Columbia), ten columns inoculated, 20 mM sprayed on the 3rd and 1st day before inoculation, observed on the 16th day
Method: The frozen tobacco leaves infected with Turnip mosaic virus were triturated in 0.1M phosphate-buffer solution at a 10-fold amount (containing 10 mM DIECA). Then, this was diluted 50 times with the same buffer solution. This was defined as virus inoculation solution C.
as §1
On the 3rd day and the 1st day prior to the date of the virus inoculation, an aqueous solution of 0.1% a spreading agent (Approach BI: manufactured by Kao Corporation) was sprayed thereon.
On the 16th day after the date of the virus inoculation, the presence or absence of disease symptoms such as yellow mosaic of new leaves, leaf curling, and plant stunting was observed.
(§3) Each was dissolved in water so as to be 20 mM ascorbic acid and 0.1% of a spreading agent (Approach BI: manufactured by Kao Corporation), thereby obtaining an aqueous solution of ascorbic acid. Except that the aqueous solution of ascorbic acid was sprayed onto Arabidopsis thaliana instead of the aqueous solution of the spreading agent, in the same manner as Comparative Example 3, Turnip mosaic virus was inoculated onto Arabidopsis thaliana, and then the onset of symptoms was examined.

Turnip mosaic virus [3] = experiment: Experiment I: spraying before and after inoculation of Arabidopsis thaliana with Turnip mosaic virus (inoculation solution A), onset of symptoms; conditions: for columns that showed symptoms / columns that were healthy: Arabidopsis thaliana (Columbia), seven columns inoculated, 20 mM sprayed on days 3 and 1 before and 1, 3, 5, 8, 10 after inoculation, observed on the 14th day
Method: (§4) Each of the frozen tobacco leaves infected with Turnip mosaic virus and Cucumber mosaic virus (Y strain) was triturated in 0.1M phosphate-buffer solution at a 10-fold amount (containing 10 mM diethyldithiocarbamic acid (DIECA)). These were defined as virus inoculation solutions A and B. These virus inoculation solutions A and B are solutions causing a 100% incidence.
(§5) Three expanded leaves per one column of Arabidopsis thaliana (Columbia) were inoculated with each virus via the aforementioned virus inoculation solutions A and B by the carborundum method.
(§6) On the 3rd day and the 1st day prior to the date of the virus inoculation, and on the 1st day, the 3rd day, the 5th day, the 8th day and the 10th days after the date of the virus inoculation, an aqueous solution of 0.1% of a spreading agent (Approach BI: manufactured by Kao Corporation) was sprayed thereon.
(§7) On the 14th day after the virus inoculation, the presence or absence of disease symptoms such as yellow mosaic of new leaves, leaf curling, and plant stunting was observed. […] It can be seen that the above virus inoculation solutions A and B are strong solutions in view of the fact that the inoculation with the solutions reliably causes the onset of symptoms.
as §3, with “Example 1,” for “Example 3,”, “virus and Cucumber mosaic virus (Y strain) were” for “virus was”
as §2, with “of N,N-dimethylformamide. Except that the aqueous solution of the anti-plant virus agent was sprayed thereon instead of the aqueous solution of ascorbic acid, in the same manner as Comparative Example 2, Turnip mosaic virus and Cucumber mosaic virus (Y strain) were inoculated onto Arabidopsis thaliana, and then the onset of symptoms was examined.” for “of N,N-dimethylformamide.”
Each was added to water so as to be 20 mM ascorbic acid 2-phosphate ester 3-sodium and 0.1% of a spreading agent (Approach BI: manufactured by Kao Corporation), thereby obtaining an aqueous solution of the anti-plant virus agent. Except that the aqueous solution of the anti-plant virus agent was sprayed thereon instead of the aqueous solution of ascorbic acid, in the same manner as Comparative Example 2, Turnip mosaic virus was inoculated onto Arabidopsis thaliana, and then the onset of symptoms was examined.

[4] = test system: Tomato aspermy virus (V strain); experiment: Experiment IV: spraying of tomato (cultivar Beiju) inoculated with Tomato aspermy virus (V strain); conditions: four columns inoculated, 2 mM sprayed every day for two weeks from inoculation, observed on the 30th day
Method: The frozen tobacco (Nicotiana benthamiana) infected with Tomato aspermy virus (V strain) was triturated in 0.1M phosphate-buffer solution at a 10-fold amount (containing 10 mM DIECA), and was filtered through a double gauze and the filtrate was defined as virus inoculation solution D. Onto fully expanded leaves of the seedling stage of tomato (cultivar: Beiju) after a period of two weeks from seeding, the virus inoculation solution D was inoculated by physical application via the carborundum method.
After the virus inoculation, as a result of examination of disease symptoms over time, mosaic or leaf curling could be recognized after the 5th day, and lethal necrosis symptoms were shown after the period of two weeks, and all of the five columns inoculated with Tomato aspermy virus (V strain) withered.
200 mM of ascorbic acid 6-palmitate was dissolved in N,N-dimethylformamide. This solution was diluted 100 times with distilled water to obtain an aqueous solution of the anti-plant virus agent comprising 2 mM ascorbic acid 6-palmitate and 1% of N,N-dimethylformamide. In the same manner as Comparative Example 7, the tomato was inoculated with tomato aspermy virus (V strain). During the two weeks from the date of virus inoculation, the aforementioned aqueous solution was sprayed thereon every day, and disease symptoms were examined over time. […]

[5] = test system: Cucumber mosaic virus (Y strain); experiment: Experiment I: spraying before and after inoculation of Arabidopsis thaliana with Cucumber mosaic virus (Y strain) (inoculation solution B), onset of symptoms; conditions: Arabidopsis thaliana (Columbia), seven columns inoculated, 20 mM sprayed on days 3 and 1 before and 1, 3, 5, 8, 10 after inoculation, observed on the 14th day
Method: as §4, §5, §6, §7
as §3, with “Example 1,” for “Example 3,”, “virus and Cucumber mosaic virus (Y strain) were” for “virus was”
Ascorbic acid 6-palmitate, a nonionic surfactant (polyoxyethylene sorbitan monolaurate) and a spreading agent (Approach BI: manufactured by Kao Corporation) were dissolved in N,N-dimethylformamide. […]

CCCCCCCCCCCCCCCC(=O)OC[C@H](O)[C@H]1OC(=O)C(OC(=O)CCCCCCCCCCCCCCC)=C1O [ascorbic acid 2,6-dipalmitate]
columns that showed symptoms (Turnip mosaic virus [1]): one | columns that were healthy (Turnip mosaic virus [1]): nine

O=C1O[C@H]([C@@H](O)CO)C(O)=C1O[C@H]1O[C@H](CO)[C@@H](O)[C@H](O)[C@H]1O [ascorbic acid 2-glucoside]
columns that showed symptoms (Turnip mosaic virus [2]): one | columns that were healthy (Turnip mosaic virus [2]): nine

O=C1O[C@H]([C@@H](O)CO)C([O-])=C1OP(=O)([O-])[O-].[Na+].[Na+].[Na+] [ascorbic acid 2-phosphate ester 3-sodium]
columns that showed symptoms (Turnip mosaic virus [3]): five | columns that were healthy (Turnip mosaic virus [3]): two | columns that were healthy (Turnip mosaic virus [2]): ten

CCCCCCCCCCCCCCCC(=O)OC[C@H](O)[C@H]1OC(=O)C(O)=C1O [ascorbic acid 6-palmitate]
columns that showed symptoms (Turnip mosaic virus [1]): one | columns that were healthy (Turnip mosaic virus [1]): nine | columns that showed symptoms (Turnip mosaic virus [3]): five | columns that were healthy (Turnip mosaic virus [3]): two | columns that were healthy [4]: two | columns that withered [4]: two | columns that showed symptoms [5]: five | columns that were healthy [5]: two

CCCCCCCCCCCCCCCCCC(=O)OC[C@H](O)[C@H]1OC(=O)C(O)=C1O [ascorbic acid 6-stearate]
columns that showed symptoms (Turnip mosaic virus [1]): one | columns that were healthy (Turnip mosaic virus [1]): nine

O=C1O[C@H]([C@@H](O)CO)C(O)=C1O [ascorbic acid, reference compound]
columns that showed symptoms (Turnip mosaic virus [3]): seven | anti-plant viral activity (conclusion in words) (Turnip mosaic virus [3]; Experiment I, 20 mM spray): does not have any anti-plant viral activity | columns that showed symptoms (Turnip mosaic virus [2]): two | columns that were healthy (Turnip mosaic virus [2]): eight | anti-plant viral activity / preventive effect (conclusion in words) (Turnip mosaic virus [2]; Experiment II, 20 mM sprayed before inoculation): do not have any anti-plant viral activity | columns that showed symptoms [5]: seven

CCCCCCCCC(CCCCCC)C(=O)OCC(OC(=O)C(CCCCCC)CCCCCCCC)C1OC(=O)C(OC(=O)C(CCCCCC)CCCCCCCC)=C1OC(=O)C(CCCCCC)CCCCCCCC (stereo not drawn) [ascorbyl 2,3,5,6-tetrahexyldecanoate]
columns that showed symptoms (Turnip mosaic virus [1]): one | columns that were healthy (Turnip mosaic virus [1]): nine

O=C1O[C@H]([C@@H](O)CO)C([O-])=C1O.[Na+] [sodium ascorbate]
columns that showed symptoms (Turnip mosaic virus [2]): three | columns that were healthy (Turnip mosaic virus [2]): seven
